Here are results for 1 compound from patent US12559789B2, “Method of targeting patient-specific oncogenes in extrachromosomal DNA to treat glioblastoma” (The Jackson Laboratory, priority 2017, dated 2026).

Common to all, as to format: in vivo, mouse
Data set [1] deals with HF3035 PDX. Put plainly: Survival of HF3035 PDX mice treated with capmatinib (Kaplan-Meier, log-rank). To be noted: single agent, 30 mg/kg daily oral doses, log-rank test.
Data set [2] is described as follows: LC-MS/MS quantitation of capmatinib in plasma and tumor tissue of HF3077 PDX (brain penetrance). To be noted: 2 h after the last 30 mg/kg oral dose. The protocol:
To evaluate brain penetrance of capmatinib, the inventors drew blood samples two hours after administration of the last capmatinib 30 mg/kg dose, sacrificed the animals, harvested brains, and froze 2 mm coronal sections in OCT. The inventors dissected tumor tissue from the frozen blocks. The inventors determined capmatinib concentration in homogenized tumor tissue and plasma for three treated animals and one control was quantified by LC-MS/MS. For mouse plasma sample analysis, the inventors precipitated 25 μL of each sample with 200 μL of acetonitrile. This suspension was vortexed for 30 min and centrifuged at 4k rpm for 15 min, after which 100 μL of the extract was aliquoted and mixed with 200 μL of acetonitrile/water (1/2, v/v) prior to LC-MS/MS analysis. The extracted plasma samples were analyzed on a Waters Acquity UPLC system coupled with a Waters Xevo TQ-S triple quadrupole mass spectrometer operated at positive mode. The capillary voltage was set to 0.5 kv and collision energy to 32 eV. […] The mobile phase A was 0.1% acetic acid/water and B was 0.1% acetic acid/acetonitrile. The LC gradient was 10% B (0-0.3 min), 10-95% B (0.3-1.3 min), 95% B (1.3-1.7 min), 10% B (1.7-2.0 min) and the flow rate was 0.5 mL/min. The column temperature was 40° C. The injection volume was 2 μL. […] The tissue homogenates were analyzed by using the same method as described above.

The subject of data set [3] is HF3077 PDX. In words: Survival of orthotopic HF3077 PDX mice treated with capmatinib (Kaplan-Meier, log-rank). To be noted: single agent, 30 mg/kg daily oral doses, log-rank test, significance P<0.05. An excerpt: Orthotopic xenografts: Following IACUC guidelines in an institutionally approved animal use protocol, the inventors implanted the GBM neurosphere cell suspensions into 8-week old female nude mice (NCRNU, Taconic Farms) (i.e. immunodeficient mice) using the protocol described in Berezovsky, A. D. et al. SOX2 promotes malignancy in glioblastoma by regulating plasticity and astrocytic differentiation, Neoplasia 16, 193-206 e25 (2014), which is incorporated herein by reference. It should be noted that other “nude” or “immunodeficient” mice may be used in the present invention, as would be apparent to those skilled in the art. Thus, the present invention is not limited to the specific nude mice used in this experiment. […] Animals were monitored daily by an observer blinded to the group allocation and sacrificed upon first signs of neurological deficit or weight loss greater than 20%. […]
The inventors treated HF3077 PDXs with capmatinib (purchased from Matrix Scientific Products (Columbia, SC)) suspensions in 0.5% methylcellulose/0.1% Tween 80 were prepared every week and administered by oral gavage using a 20 g×1.5″ gavage needle (Cadence) at a dose of 30 mg/kg once a day (5 days/week) until the end of the study. […] Animals were monitored daily and sacrificed upon first signs of neurological deficit or weight loss greater than 20%. […]

“Also recorded” adds a separate entry of the source.

For the compound `CNC(=O)c1ccc(-c2cnc3ncc(Cc4ccc5ncccc5c4)n3n2)cc1F` [capmatinib, Capmatinib], the “survival of HF3035 PDX” value in data set [1] is given as “did not increase survival”. The “concentration of drug in the brain tumor” value in data set [2] is reported as “relatively low concentration”. Also, the “survival of HF3077 PDX” value in data set [3] is on record as “significant survival benefit; also recorded: increases survival of HF3077 PDX”.
